Among the data in patent US20260125381A1, “NOVEL Kv3 CHANNEL MODULATORS” (Merck Sharp & Dohme LLC, priority 2022, published 2026) are EC50 values, retold here.

The structures appear in SMILES notation.

Experiment [1] has as its target T1, Kv3.1 (Homo sapiens, UniProt P48547).
T1 sequence (P48547 1-511): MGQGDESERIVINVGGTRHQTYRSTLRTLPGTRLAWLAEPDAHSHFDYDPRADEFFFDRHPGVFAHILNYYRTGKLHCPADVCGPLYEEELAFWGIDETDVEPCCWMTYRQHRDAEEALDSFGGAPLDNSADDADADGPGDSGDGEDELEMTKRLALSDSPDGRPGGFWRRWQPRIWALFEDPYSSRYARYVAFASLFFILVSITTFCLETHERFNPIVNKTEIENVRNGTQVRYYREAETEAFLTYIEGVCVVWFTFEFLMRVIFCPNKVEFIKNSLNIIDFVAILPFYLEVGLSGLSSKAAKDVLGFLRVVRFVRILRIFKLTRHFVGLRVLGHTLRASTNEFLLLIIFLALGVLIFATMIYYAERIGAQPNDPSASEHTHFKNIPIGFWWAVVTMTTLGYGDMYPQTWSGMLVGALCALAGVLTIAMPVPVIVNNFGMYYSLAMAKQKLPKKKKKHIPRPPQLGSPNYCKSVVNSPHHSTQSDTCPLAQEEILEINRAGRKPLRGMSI
The experiment can be described thus: Automated whole cell patch clamp (Qube) on HEK cells overexpressing Kv3.1. Set-up: expressed in transfected cells; host or cells: HEK cells, stably transfected. The following applies: stably transfected HEK cells overexpressing Kv3.1. In kind it is cell-based. Here is the method: In Vitro Characterization of Positive Modulators of Kv3.1 in Automated Patch Clamp
Automated whole cell patch-clamp was performed on the Qube using stably transfected HEK cell lines overexpressing Kv3.1 channels. Stable cell lines expressing Kv3.2 or Kv3.4 were used for counter-screening. Cells were held at −70 mV. Two depolarizing test pulses to −15 mV (200 ms) and +20 mV (200 ms) were given at a frequency of 0.1 Hz. Kv3.1 current amplitude elicited by test pulses was measured before and after compound addition at steady state. Ten concentrations were tested for each molecule. Raw data from Qube experiments were retrieved from the Qube database and analyzed using the Sophion Analyzer software and DR FIT Spotfire analysis. Apparent compound EC50 values, maximum potentiation, and EC2xIK (effective concentration at which a doubling in K current was observed) were determined using dose response 4 parameter curve fitting.
Background: The patch-clamp technique gives a direct electrical read-out from membranes.

Experiment [2] deals with T1, Kv3.1. The experiment is described as follows: FLIPR based Tl+ influx assay for positive modulators of Kv3.1. It counts as cell-based. Set-up: expressed in transfected cells; host or cells: ARF (assay-ready frozen) cells. The following applies: thallium influx, FLIPR Tetra, 1536-well. Here is the method: FLIPR Based Tl+ Influx Assay for Characterization of Positive Modulators of Kv3.1
Thallium influx assay was performed following manufacturer instruction with modifications. The major improvement was that the assay was miniaturized in 1536w assay plate to achieve ultrahigh throughput. The cell culture medium used for cell plating was the same medium mentioned above without selection antibiotics. Twenty to twenty four hours prior to the assay day, ARF cells in frozen vials were thawed in 37° C. water bath and washed once in the culture medium. The cell density was adjusted at 8.3×E5/ml and plated in 1536-w PDL coated plates (Aurora. US) at 4 μl/w, using Multidrop Combi (Thermo Fisher Scientific, Waltham, MA USA). Plates were then centrifuged at 300 g for two minutes for cells to achieve uniform settlement. The MicroClime plate lid (Labcyte Inc., San Jose, CA USA) was used to prevent evaporation from the edge wells and minimize the edge effect. Plates were incubated at 37° C., 5% CO2 overnight.
On the next day, the cell plates were further loaded with 3 μl/w of fluorescence dye solution containing all required components in the assay kit as instructed by the manufacturer protocol and incubated at room temperature for 60 min. Control and test compounds were then added into the cell plate by acoustic liquid transfer Echo (Labcyte Inc., San Jose, CA USA). After 10 min incubation with compounds, the cell plate was transferred to FLIPR Tetra platform (Molecular Devices, Sunnyvale, CA, USA) for recording fluorescence signal. The plate was recorded with excitation wavelength at 475-485 nm and emission wavelength at 510-545 nm. Data acquisition was taken at 1 Hz and completed in 130 seconds. After the first 10 s of recording, 3 μl of stimulus buffer was added into each well by liquid handler equipped in the FLIPR platform. The buffer contains 95 mM of Na2SO4 to maintain osmolarity, 7.5 mM of K2SO4 to depolarize membrane and activate the voltage gated Kv3.1 or 3.4 channels and 1 mM of Tl2SO4 to provide 2 mM Tl+ for Tl sensitive fluorescent signal. […]

On to `Cc1cccc(Oc2ccc(-n3c(=O)[nH]c4cccnc43)cn2)c1C` [Example 1, 3-(6-(2,3-dimethylphenoxy)pyridin-3-yl)-1,3-dihydro-2H-imidazo[4,5-b]pyridin-2-one], for which the EC50 at Kv3.1 [1] amounted to 4.35 µM; at Kv3.1 [2], 1.63 µM.

For `Cc1ncc2[nH]c(=O)n(-c3cnc(Oc4cccc5c4C(C)(C)CO5)c(Cl)c3)c2n1` [Example 2, 9-(5-chloro-6-((3,3-dimethyl-2,3-dihydrobenzofuran-4-yl)oxy)pyridin-3-yl)-2-methyl-7,9-dihydro-8H-purin-8-one], the half-maximal effective concentration (EC50) came out at 0.213 µM on Kv3.1 [1] and 0.146 µM at Kv3.1 [2].

At Kv3.1 [2], `Cc1ncc2[nH]c(=O)n(-c3cnc(Oc4cccc5c4C(C)(C)CO5)c(Cl)c3C)c2n1` [Example 3, 9-(5-chloro-6-((3,3-dimethyl-2,3-dihydrobenzofuran-4-yl)oxy)-4-methylpyridin-3-yl)-2-methyl-7,9-dihydro-8H-purin-8-one] gave an EC50 of 0.0312 µM.

One may read the EC50 as the concentration that produces a half-maximal response.
